Molecules are shown by their SMILES. ≈ marks a conversion by molar mass, not a printed value.

In US10174053B2, “2 substituted cephem compounds” (Glaxo Group Limited, priority 2012, dated 2019) one finds MIC data, which are given here for 11 compounds.

Holding throughout (test): In vitro antimicrobial activity, MIC by broth microdilution (CLSI)
What all share (type): cell-based

The test system of one experiment is E. Coli JMI1890. As to conditions: Escherichia coli; PER-1, TEM-1, ESBL producing strain; 5×10^5 cfu/mL; cation-adjusted Iso-Sensitest broth containing human Apo-transferrin; read-out: Minimum Inhibitory Concentration (MIC) E. Coli JMI:1890. In short, it runs like this: (§1)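 MIC (μg/mL) by CLSI broth microdilution, inoculum 5×10^5 cfu/mL, in cation-adjusted Iso-Sensitest broth containing human apo-transferrin.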

In the next experiment the test system is A. baumannii JMI7. As to conditions: Acinetobacter baumannii, JMI7; PER-1, OXA-23, 51, ESBL and OXA-type carbapenemase producing strain; 5×10^5 cfu/mL; cation-adjusted Iso-Sensitest broth containing human Apo-transferrin; read-out: Minimum Inhibitory Concentration (MIC) A. baumannii JMI:7. A digest of the protocol: as §1
In the next experiment the test system is A. baumannii JMI2346. Conditions: Acinetobacter baumannii, JMI2346; OXA-51, TEM, ESBL and OXA-type carbapenemase producing strain; 5×10^5 cfu/mL; cation-adjusted Iso-Sensitest broth containing human Apo-transferrin; read-out: Minimum Inhibitory Concentration (MIC) A. baumannii JMI:2346. In short, it runs like this:
as §1

The test system of a further experiment is K. pneumoniae SR01358. Conditions: Klebsiella pneumoniae, SR01358; KPC-2, ESBL and KPC-type carbapenemase producing strain; 5×10^5 cfu/mL; cation-adjusted Iso-Sensitest broth containing human Apo-transferrin; read-out: Minimum Inhibitory Concentration (MIC) K. pneumoniae SR01358. A digest of the protocol:
as §1

As to `C[C@@H]1S[C@@H]2[C@H](NC(=O)/C(=N\OC(C)(C)C(=O)[O-])c3csc(N)n3)C(=O)N2C(C(=O)[O-])=C1C[N+]1(CCNC(=O)C(=O)c2cc(O)c(O)c(Cl)c2)CCCC1.[Na+]` [Compound I-8], the MIC with E. Coli JMI1890 came out at 1 µg/mL; with A. baumannii JMI7 it was 1 µg/mL; in the experiment on A. baumannii JMI2346 it was 16 µg/mL; in the experiment on K. pneumoniae SR01358, 0.25 µg/mL.
For `C[C@@H]1S[C@@H]2[C@H](NC(=O)/C(=N\OC(C)(C)C(=O)[O-])c3csc(N)n3)C(=O)N2C(C(=O)[O-])=C1C[N+]12CCC(Cn3ncc4c(Cl)c(O)c(O)cc4c3=O)(CC1)CC2.[Na+]` [Compound I-113], the MIC in the experiment on E. Coli JMI1890 is 0.25 µg/mL; in the experiment with A. baumannii JMI7, 0.25 µg/mL; in the experiment with A. baumannii JMI2346 it was 4 µg/mL; in the experiment on K. pneumoniae SR01358, at most 0.031 µg/mL.
On to `C[C@@H]1S[C@@H]2[C@H](NC(=O)/C(=N\OC(C)(C)C(=O)[O-])c3csc(N)n3)C(=O)N2C(C(=O)[O-])=C1C[N+]12CCC(CN3C(=O)c4cc(O)c(O)cc4C3=O)(CC1)C2.[Na+]` [Compound I-116], for which the MIC in the experiment with E. Coli JMI1890 is at most 0.031 µg/mL; in the experiment on A. baumannii JMI7, 0.25 µg/mL; in the experiment on A. baumannii JMI2346, 1 µg/mL; in the experiment on K. pneumoniae SR01358, at most 0.031 µg/mL.
Consider `C[C@@H]1S[C@@H]2[C@H](NC(=O)/C(=N\OC(C)(C)C(=O)[O-])c3csc(N)n3)C(=O)N2C(C(=O)O)=C1C[N+]1(CCNC(=O)c2ccc(O)c(O)c2Cl)CCCCC1` [Compound I-43], for which the MIC with E. Coli JMI1890 turned out to be 0.5 µg/mL (≈ 0.641 µM); in the experiment on A. baumannii JMI7, 1 µg/mL (≈ 1.28 µM); in the experiment with A. baumannii JMI2346 it was 4 µg/mL (≈ 5.13 µM); with K. pneumoniae SR01358 it was 0.063 µg/mL (≈ 0.0807 µM).
As to `C[C@@H]1S[C@@H]2[C@H](NC(=O)/C(=N\OC(C)(C)C(=O)[O-])c3csc(N)n3)C(=O)N2C(C(=O)[O-])=C1C[N+]12CCC[C@H]1CN(C(=O)c1cc(O)c(O)c(F)c1)CC2.[Na+]` (some centres unmarked) [Compound I-68], the MIC in the experiment with E. Coli JMI1890 is 0.5 µg/mL; with A. baumannii JMI7 it was 2 µg/mL; in the experiment with A. baumannii JMI2346 it was 8 µg/mL; in the experiment on K. pneumoniae SR01358, at most 0.031 µg/mL.
As to `C[C@@H]1S[C@@H]2[C@H](NC(=O)/C(=N\OC(C)(C)C(=O)[O-])c3csc(N)n3)C(=O)N2C(C(=O)[O-])=C1C[N+]12CCCC(CNC(=O)c3ccc(O)c(O)c3Cl)(CCC1)C2.[Na+]` [Compound I-118], the MIC in the experiment with E. Coli JMI1890 was at most 0.031 µg/mL; in the experiment on A. baumannii JMI7, 0.25 µg/mL; in the experiment on A. baumannii JMI2346, 0.5 µg/mL; in the experiment with K. pneumoniae SR01358 it was 0.063 µg/mL.
For `CO/N=C(\C(=O)NCC12CC[N+](CC3=C(C(=O)O)N4C(=O)[C@@H](NC(=O)/C(=N\OC(C)(C)C(=O)[O-])c5csc(N)n5)[C@H]4S[C@H]3C)(CC1)CC2)c1ccc(O)c(O)c1Cl` [Compound I-96], the MIC was 0.125 µg/mL (≈ 0.147 µM) in the experiment on E. Coli JMI1890, 1 µg/mL (≈ 1.18 µM) with A. baumannii JMI7, 8 µg/mL (≈ 9.42 µM) with A. baumannii JMI2346 and at most 0.031 µg/mL with K. pneumoniae SR01358.
Turning to `C[C@@H]1S[C@@H]2[C@H](NC(=O)/C(=N\OC(C)(C)C(=O)[O-])c3csc(N)n3)C(=O)N2C(C(=O)O)=C1C[N+]12CCC(CNC(=O)c3ccc(O)c(O)c3Cl)(CC1)CC2` [Compound I-40], the MIC with E. Coli JMI1890 was determined as 0.5 µg/mL (≈ 0.631 µM); with A. baumannii JMI7, 1 µg/mL (≈ 1.26 µM); with A. baumannii JMI2346, 4 µg/mL (≈ 5.05 µM); in the experiment with K. pneumoniae SR01358, 0.063 µg/mL (≈ 0.0795 µM).
Take `C[C@@H]1S[C@@H]2[C@H](NC(=O)/C(=N\OC(C)(C)C(=O)[O-])c3csc(N)n3)C(=O)N2C(C(=O)[O-])=C1C[N+]12CCC(CC1)N(C(=O)C(=O)c1ccc(O)c(O)c1)CC2.[Na+]` [Compound I-108]: the MIC with E. Coli JMI1890 is 0.5 µg/mL; in the experiment with A. baumannii JMI7, 0.5 µg/mL; with A. baumannii JMI2346 it was 2 µg/mL; with K. pneumoniae SR01358, at most 0.031 µg/mL.
As for `CCn1cc(C(=O)N[C@H]2C[C@H]3CC[C@@H](C2)[N@+]3(C)CC2=C(C(=O)O)N3C(=O)[C@@H](NC(=O)/C(=N\OC(C)(C)C(=O)[O-])c4csc(N)n4)[C@H]3S[C@H]2C)c(=O)c2c(Cl)c(O)c(O)cc21` [Compound I-121], the MIC is 0.063 µg/mL (≈ 0.071 µM) in the experiment on E. Coli JMI1890, 0.5 µg/mL (≈ 0.563 µM) in the experiment on A. baumannii JMI7, 2 µg/mL (≈ 2.25 µM) with A. baumannii JMI2346 and at most 0.031 µg/mL with K. pneumoniae SR01358.
For `C[C@@H]1S[C@@H]2[C@H](NC(=O)/C(=N\OC(C)(C)C(=O)[O-])c3csc(N)n3)C(=O)N2C(C(=O)[O-])=C1C[N+]1(CCNC(=O)C(=O)c2cc(O)c(O)c(F)c2)CCCC1.[Na+]` [Compound I-84], the MIC in the experiment with E. Coli JMI1890 is 2 µg/mL; with A. baumannii JMI7, 1 µg/mL; in the experiment with A. baumannii JMI2346, 16 µg/mL; with K. pneumoniae SR01358, at most 0.031 µg/mL.
